{"source": "patent US5231091A", "about": "“Bis-arylphosphate ester antagonists of platelet activating factor” (priority 1992, dated 1993)", "note": "pIC50: −log10 of the molar value. Where a name gives a salt, the structure may show the parent alone.", "data": [{"target": "T1, PAF receptor (Oryctolagus cuniculus, UniProt G1TEI7)", "T1 construct": "endogenous in cells; host or cells: rabbit platelets (male New Zealand White)", "T1 sequence (G1TEI7 1-342)": "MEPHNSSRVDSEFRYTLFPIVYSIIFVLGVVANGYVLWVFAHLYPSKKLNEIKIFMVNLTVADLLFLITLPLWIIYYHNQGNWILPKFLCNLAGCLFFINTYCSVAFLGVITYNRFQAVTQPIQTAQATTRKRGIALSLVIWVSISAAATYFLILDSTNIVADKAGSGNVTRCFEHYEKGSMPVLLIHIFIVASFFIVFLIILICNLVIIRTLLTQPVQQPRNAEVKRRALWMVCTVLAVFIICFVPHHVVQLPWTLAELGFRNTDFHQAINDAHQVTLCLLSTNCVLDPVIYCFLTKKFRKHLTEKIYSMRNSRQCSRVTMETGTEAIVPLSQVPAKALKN", "test": "Inhibition of PAF-induced aggregation in rabbit platelet rich plasma", "type": "cell-based, rabbit (male New Zealand White)", "conditions": "not given", "experimental": "(§1) Test compounds were evaluated as PAF receptor antagonists in vitro by measuring inhibition of PAF (platelet activating factor) induced platelet aggregation. Platelet aggregation was measured by a modification of the method described in A. Wissner, et. al., J. Med. Chem., 27, 1174, 1984.\n(§2) Approximately 120-240 ml of blood were collected by cardiac puncture from unanesthetized male New Zealand White rabbits (Whaley's Summit View Farms, Belvedere, N.J.) with the use of 3.2% sodium citrate anticoagulant (1 part of citrate/10 parts of blood). All syringes and pipets were plastic. The blood was gently mixed and immediately centrifuged at 800 rpm for 10-15 minutes at room temperature to recover the platelet rich plasma (PRP). Platelet poor plasma (PPP) was prepared by centrifuging PRP at 2800 rpm for 10 minutes at room temperature.\n(§3) Dilutions (1:3000) of PRP in Isoton® diluent were made and platelet counts were determined on a Coulter Thrombocounter which was standardized with platelet reference standards (Interscience Platelet Control, Portland, Oreg.). PRP platelet counts were adjusted to approximately 400,000-500,000 platelets/μl by the addition of PPP.\n(§4) L-PAF was obtained from Calbiochem. A stock solution of 1-2 E-3M was prepared in 10% ethanol in water or 100% methanol and serial working dilutions were made using phosphate buffered saline (PBS). 1-2 E-3M stock solutions of test compounds were prepared in 100% methanol and serially diluted in PBS. All solutions were made up in plastic tubes, stored on ice and protected from heat and light. Solutions were prepared fresh or frozen at -20° C. and used within 48 hours.\n(§5) Incubation mixtures consisted of 400 μl PRP, 50 μl of PBS diluent or test compound and 50 μl of PAF agonist. More specifically, 400 μl of PRP was stabilized in a cuvette for 1-2 minutes at 37° C. in the aggregometer to achieve a stable baseline, then 50 μl of PBS or test compound, was added and incubated for 5 minutes before addition of the challenge concentration of PAF (final concentration of 5E-8M or 1E-7M, as determined from the dose response curve for PAF for that experiment). Aggregation was monitored for 5 minutes. Samples containing test compound or diluent were run simultaneously for comparison. Test compounds were initially evaluated at a screening concentration of 1E-5M.\n(§6) The recording equipment consisted of a dual channel Chronolog aggregometer connected to a dual channel 10 MV full scale deflection Omniscribe chart recorder (Houston Instruments). […] The bead suspension was used to set the 0% light transmission mark and clear water was used to set the 100% light transmission mark. These limits defined a full scale deflection. The aggregation traces were analyzed by a digitizing method (C. Kohler and B. Zoltan, J. Pharm. Methods, 12, 113, 1984) with x, y coordinate data stored in a computer file. A suitable program computed parameters of interest such as the magnitude of aggregation.", "values": [{"smiles": "CCCCCCCCCCCCCCCCCCNC(=O)Oc1cccc(OP(=O)([O-])Oc2cccc(C[n+]3csc(C)c3)c2)c1C", "note": "[3-[[3-[[Hydroxy[2-methyl-3-[[(octadecylamino)carbonyl]oxy]phenoxy]phosphinyl]oxy]phenyl]methyl]-5-methylthiazolium, hydroxide, inner salt]", "pIC50": 5.74}, {"smiles": "CCCCCCCCCCCCCCCCCCNC(=O)Oc1cccc(OP(=O)([O-])Oc2cccc(C[n+]3ccsc3)c2)c1C", "note": "[3-[[3-[[Hydroxy[2-methyl-3-[[(octadecylamino)carbonyl]oxy]phenoxy]phosphinyl]oxy]phenyl]methyl]thiazolium, hydroxide, inner salt]", "pIC50": 5.43}]}, {"target": "T1, PAF receptor", "test": "Inhibition of PAF-induced aggregation in rabbit platelet rich plasma", "type": "cell-based, rabbit (male New Zealand White)", "conditions": "rabbit platelet rich plasma; PAF challenge 5E-8M; number of experiments in parentheses; read-out: IC50 inhibition of PAF-induced aggregation", "experimental": "as §1, §2, §3, §4, §5, §6", "values": [{"smiles": "CCCCCCCCCCCCCCOc1cccc(OP(=O)([O-])Oc2cccc(C[n+]3cccc4ccccc43)c2)c1C(=O)OC", "note": "[1-[[3-Hydroxy[2-(methoxycarbonyl)-3-(tetradecyloxy)-phenoxy]phosphinyl]oxy]phenyl]methyl]quinolinium, hydroxide, inner salt]", "pIC50": 5.20}, {"smiles": "CCCCCCCCCCCCCCOc1cccc(OP(=O)([O-])Oc2cccc(C[n+]3ccccc3)c2)c1OC", "note": "[1-[[3-[[Hydroxy[2-methoxy-3-(tetradecyloxy)phenoxy]-phosphinyl]oxy]phenyl]methyl]-pyridinium, hydroxide, inner salt]", "pIC50": 3.78}, {"smiles": "CCCCCCCCCCCCCCOc1cccc(OP(=O)([O-])Oc2cccc(C[n+]3cccc4ccccc43)c2)c1OC", "note": "[1-[[3-[[Hydroxy[2-methoxy-3-(tetradecyloxy)phenoxy]-phosphinyl]oxy]phenyl]methyl]-quinolinium, hydroxide, inner salt]", "pIC50": 5.10}, {"smiles": "CCCCCCCCCCCCCCCCOc1cccc(OP(=O)([O-])Oc2cccc(C[n+]3ccccc3)c2)c1", "note": "[1-[[3-[[[3-(Hexadecyloxy)phenoxy]hydroxyphosphinyl]-oxy]phenyl]methyl]-pyridinium, hydroxide inner salt]", "pIC50": 4.81}, {"smiles": "CCCCCCCCCCCCCCCCOc1cccc(OP(=O)(O)Oc2cccc(C[n+]3cccc4ccccc43)c2)c1", "note": "[1-[[3-[[[3-(Hexadecyloxy)phenoxy]hydroxyphosphinyl]-oxy]phenyl]methyl]-quinolinium, hydroxide]", "pIC50": 4.66}, {"smiles": "CCCCCCCCCCCCCCCCOc1cccc(OP(=O)([O-])Oc2cccc(C[n+]3cccc4ccccc43)c2)c1C", "note": "[1-[[3-[[[3-(hexadecyloxy)-2-methylphenoxy]hydroxyphosphinyl]oxy]phenyl]methyl]quinolinium]", "pIC50": 4.53}, {"smiles": "CCCCCCCCCCCCCCOc1cccc(OP(=O)([O-])Oc2cccc(C[n+]3ccc4ccccc4c3)c2)c1OC", "note": "[2-[[3-[[Hydroxy[2-methoxy-3-(tetradecyloxy)phenoxy]-phosphinyl]oxy]phenyl]methyl]-isoquinolinium, hydroxide, inner salt]", "pIC50": 4.70}, {"smiles": "CCCCCCCCCCCCCCCCOc1cccc(OP(=O)([O-])Oc2ccccc2C[n+]2ccsc2)c1", "note": "[3-[[2-[[[3-(Hexadecyloxy)phenoxy]hydroxyphosphinyl]oxy]phenyl]methyl]-thiazolium, hydroxide, inner salt]", "pIC50": 5.20}, {"smiles": "CCCCCCCCCCCCCCOc1ccccc1OP(=O)([O-])Oc1cccc(C[n+]2ccsc2)c1", "note": "[3-[[3-[ [Hydroxy[2-(tetradecyloxy)phenoxy]phosphinyl]-oxy]phenyl]methyl]thiazolium, hydroxide, inner salt]", "pIC50": 4.24}, {"smiles": "CCCCCCCCCCCCCCc1cccc(OP(=O)([O-])Oc2cccc(C[n+]3ccsc3)c2)c1", "note": "[3-[[3-[[Hydroxy(3-tetradecylphenoxy)phosphinyl]oxy]-phenyl]methyl]thiazolium, hydroxide, inner salt]", "pIC50": 4.73}, {"smiles": "CCCCCCCCCCCCCCOc1cccc(OP(=O)([O-])Oc2cccc(C[n+]3ccsc3)c2)c1C(=O)OC", "note": "[3-[[3-[[Hydroxy[2-(methoxycarbonyl)-3-(tetradecyloxy)-phenoxy]phosphinyl]oxy]phenyl]methyl]-thiazolium, hydroxide, inner salt]", "pIC50": 5.57}, {"smiles": "CCCCCCCCCCCCCCOc1cccc(OP(=O)([O-])Oc2cccc(C[n+]3csc(C)c3)c2)c1C(=O)OC", "note": "[3-[[3-[[Hydroxy[2-(methoxycarbonyl)-3-(tetradecyloxy)phenoxy]phosphinyl]oxy]phenyl]methyl]-5-methylthiazolium, hydroxide, inner salt]", "pIC50": 6.28}, {"smiles": "CCCCCCCCCCCCCCOc1cccc(OP(=O)([O-])Oc2cccc(C[n+]3csc(C)c3)c2)c1", "note": "[3-[[3-[[Hydroxy[3-(tetradecyloxy)phenoxy]phosphinyl]-oxy]phenyl]methyl]-5-methyl-thiazolium, hydroxide, inner salt]", "pIC50": 5.05}, {"smiles": "CCCCCCCCCCCCCCOc1cccc(OP(=O)([O-])Oc2cccc(C[n+]3ccsc3)c2)c1", "note": "[3-[[3-[[Hydroxy[3-(tetradecyloxy)phenoxy]phosphinyl]-oxy]phenyl]methyl]thiazolium, hydroxide, inner salt]", "pIC50": 5.21}, {"smiles": "Cc1c[n+](Cc2cccc(OP(=O)([O-])Oc3ccc(OCc4ccccc4)cc3)c2)cs1", "note": "[3-[[3-[[Hydroxy[4-(phenylmethoxy)phenoxy]phosphinyl]oxy]phenyl]methyl]-5-methyl-thiazolium, hydroxide, inner salt]", "pIC50": 2.82}, {"smiles": "CCCCCCCCCCCCCCOc1cccc(COP(=O)([O-])Oc2cccc(C[n+]3ccsc3)c2)c1", "note": "[3-[[3-[[Hydroxy[[3-(tetradecyloxy)phenyl]methoxy]-phosphinyl]oxy]phenyl]methyl]thiazolium, hydroxide, inner salt]", "pIC50": 5.37}, {"smiles": "CCCCCCCCCCCCOc1cc(OP(=O)([O-])Oc2cccc(C[n+]3ccsc3)c2)c(C(C)(C)C)cc1C(C)(C)C", "note": "[3-[[3-[[[2,4-Bis(1,1-dimethylethyl)-5-(dodecyloxy)phenoxy]hydroxyphosphinyl]oxy]phenyl]methyl]thiazolium, hydroxide, inner salt]", "pIC50": 4.52}, {"smiles": "CCCCCCCCCCCCOc1cc(C(C)(C)C)c(OP(=O)([O-])Oc2cccc(C[n+]3csc(C)c3)c2)cc1C(C)(C)C", "note": "[3-[[3-[[[2,5-Bis(1,1-dimethylethyl)-4-(dodecyloxy)phenoxy] hydroxyphosphinyl]oxy]phenyl]methyl]-5-methyl-thiazolium, hydroxide, inner salt]", "pIC50": 6.39}, {"smiles": "CCCCCCCCCCCCOc1cccc(OP(=O)([O-])Oc2cccc(C[n+]3ccsc3)c2)c1OC", "note": "[3-[[3-[[[3-(Dodecyloxy)-2-methoxyphenoxy]hydroxyphosphinyl]oxy]phenyl]methyl]thiazolium, hydroxide, inner salt]", "pIC50": 5.76}, {"smiles": "CCCCCCCCCCCCOc1cccc(OP(=O)([O-])Oc2cccc(C[n+]3ccsc3)c2)c1", "note": "[3-[[3-[[[3-(Dodecyloxy)phenoxy]hydroxyphosphinyl]-oxy]phenyl]methyl]thiazolium, hydroxide, inner salt]", "pIC50": 4.28}, {"smiles": "CCCCCCCCCCCCOc1ccc2ccc(OP(=O)([O-])Oc3cccc(C[n+]4ccsc4)c3)cc2c1", "note": "[3-[[3-[[[[7-(dodecyloxy)-2-naphthalenyl]oxy]hydroxyphosphinyl]oxy]phenyl]methyl]thiazolium, hydroxide, inner salt]", "pIC50": 4.58}, {"smiles": "CCCCCCCCCCCCOc1cccc(OP(=O)([O-])Oc2cccc(C[n+]3cccc4ccccc43)c2)c1OC", "note": "[-[[3-[[[3-(Dodecyloxy)-2-methoxyphenoxy]hydroxyphosphinyl]oxy]phenyl]methyl]quinolinium, hydroxide, inner salt]", "pIC50": 4.61}]}, {"system": "PAF induced lethality", "test": "PAF induced lethality in mice", "type": "in vivo", "conditions": "I.P. 10 mg/kg; corrected for control lethality", "experimental": "PAF given I.V. to mice causes an immediate hypotensive shock leading to death in 1 hour or less. Compounds were given intraperitoneally or P.O. at various times before the PAF challenge. Animals alive after 2 hours were counted and the activity of test compounds expressed as % survival corrected for any control (saline treated) animals which survived the PAF challenge.", "units": {"PAF induced lethality, % protection": "%"}, "values": [{"smiles": "CCCCCCCCCCCCCCOc1cccc(OP(=O)([O-])Oc2cccc(C[n+]3ccsc3)c2)c1C(=O)OC", "note": "[3-[[3-[[Hydroxy[2-(methoxycarbonyl)-3-(tetradecyloxy)-phenoxy]phosphinyl]oxy]phenyl]methyl]-thiazolium, hydroxide, inner salt]", "PAF induced lethality, % protection": 12}, {"smiles": "CCCCCCCCCCCCCCOc1cccc(OP(=O)([O-])Oc2cccc(C[n+]3csc(C)c3)c2)c1C(=O)OC", "note": "[3-[[3-[[Hydroxy[2-(methoxycarbonyl)-3-(tetradecyloxy)phenoxy]phosphinyl]oxy]phenyl]methyl]-5-methylthiazolium, hydroxide, inner salt]", "PAF induced lethality, % protection": 0}, {"smiles": "CCCCCCCCCCCCOc1cc(C(C)(C)C)c(OP(=O)([O-])Oc2cccc(C[n+]3csc(C)c3)c2)cc1C(C)(C)C", "note": "[3-[[3-[[[2,5-Bis(1,1-dimethylethyl)-4-(dodecyloxy)phenoxy] hydroxyphosphinyl]oxy]phenyl]methyl]-5-methyl-thiazolium, hydroxide, inner salt]", "PAF induced lethality, % protection": 36}]}]}
